{
  "source": "paper PMC11324517",
  "about": "(Nature, 2024)",
  "key": {"∆-hDAT": {"target": "∆-hDAT (Homo sapiens, UniProt Q01959, I248Y)", "sequence (Q01959 57-620 I248Y limits assumed)": "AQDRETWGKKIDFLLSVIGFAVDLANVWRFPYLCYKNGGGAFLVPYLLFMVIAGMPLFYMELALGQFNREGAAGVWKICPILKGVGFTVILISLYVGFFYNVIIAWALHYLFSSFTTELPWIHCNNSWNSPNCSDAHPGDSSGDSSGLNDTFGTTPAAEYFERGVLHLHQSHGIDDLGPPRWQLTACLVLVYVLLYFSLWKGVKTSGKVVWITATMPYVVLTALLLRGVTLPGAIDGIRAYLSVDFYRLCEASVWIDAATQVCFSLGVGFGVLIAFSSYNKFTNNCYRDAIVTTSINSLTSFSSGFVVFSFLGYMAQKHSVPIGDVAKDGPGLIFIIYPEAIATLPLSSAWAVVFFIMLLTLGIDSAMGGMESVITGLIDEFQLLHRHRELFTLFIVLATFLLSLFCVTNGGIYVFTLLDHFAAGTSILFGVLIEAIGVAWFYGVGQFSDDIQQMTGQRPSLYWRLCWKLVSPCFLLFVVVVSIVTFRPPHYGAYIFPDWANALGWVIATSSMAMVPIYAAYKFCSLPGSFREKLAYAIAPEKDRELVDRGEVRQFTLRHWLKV", "conditions": "10 µM MRS7292, [3H]DA 0.185 uM, background not subtracted", "protocol": "(§1) HEK293 GnTI^− cells were transduced with Δ-hDAT and full-length hDAT P2 viruses, propagated in SF9 cells using standard methods as described in ‘Protein expression and purification’, at a cell density of 2.5 – 3.0 × 10^6 cells per ml, followed by incubation at 37 °C for 6 h. After 6 h, sodium butyrate was added to a final concentration of 10 mM, and the cells were transferred to 30 °C with 8% CO2 for 6 h. The transduced cells were seeded into 96-well poly-D-lysine coated Isoplates (Perkin Elmer) at a density of 100,000 cells per well. The plates were then incubated at 30 °C for 12–16 h before the uptake assay was initiated. The cells were initially washed with 37 °C uptake assay buffer composed of 25 mM HEPES pH 7.4, 120 mM NaCl, 5 mM KCl, 1.2 mM CaCl2, 1.2 mM MgSO4, 5 mM D-glucose, 1 mM ascorbic acid, and 1 µM Ro 41-0960, followed by incubation in 50 µl of the same buffer for 10 min. Replicates with 10 µM of GBR12909 in the uptake assay buffer were used to measure background. […] The uptake reaction was stopped by adding 100 µl of chilled inhibition buffer, uptake assay buffer supplemented with 2.5 µM GBR12909. Two consecutive washes with 100 µl of inhibition buffer were carried out, followed by resuspension of cells in 100 µl of 1% Triton X-100. Finally, 100 µl of liquid scintillation cocktail was added to each well and [^3H] counts were measured using a MicroBeta2 (Perkin Elmer). Background counts from three replicates were averaged and subtracted from total counts."}, "full-length hDAT": {"target": "full-length hDAT (Homo sapiens, UniProt Q01959)", "sequence (Q01959 whole entry)": "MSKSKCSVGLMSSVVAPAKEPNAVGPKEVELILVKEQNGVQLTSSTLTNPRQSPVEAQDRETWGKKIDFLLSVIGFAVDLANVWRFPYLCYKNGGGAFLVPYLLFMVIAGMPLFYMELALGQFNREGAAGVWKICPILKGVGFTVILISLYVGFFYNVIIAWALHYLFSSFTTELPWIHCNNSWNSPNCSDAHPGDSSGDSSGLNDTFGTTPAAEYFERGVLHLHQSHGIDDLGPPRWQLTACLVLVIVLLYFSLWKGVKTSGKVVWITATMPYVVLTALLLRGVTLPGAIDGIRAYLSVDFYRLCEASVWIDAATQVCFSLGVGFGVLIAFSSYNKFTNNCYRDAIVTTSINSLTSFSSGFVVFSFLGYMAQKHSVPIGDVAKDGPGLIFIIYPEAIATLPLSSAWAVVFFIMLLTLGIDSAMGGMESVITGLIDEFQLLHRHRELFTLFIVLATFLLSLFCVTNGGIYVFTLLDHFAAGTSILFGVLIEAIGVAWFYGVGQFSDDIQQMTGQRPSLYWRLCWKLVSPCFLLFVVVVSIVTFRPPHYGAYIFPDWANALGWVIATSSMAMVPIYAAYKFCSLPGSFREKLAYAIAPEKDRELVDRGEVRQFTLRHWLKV", "conditions": "background not subtracted", "protocol": "as §1"}, "∆-hDAT W84A": {"target": "T1, ∆-hDAT W84A (Homo sapiens, UniProt Q01959, I248Y/W84A)", "T1 sequence (Q01959 57-620 W84A/I248Y limits assumed)": "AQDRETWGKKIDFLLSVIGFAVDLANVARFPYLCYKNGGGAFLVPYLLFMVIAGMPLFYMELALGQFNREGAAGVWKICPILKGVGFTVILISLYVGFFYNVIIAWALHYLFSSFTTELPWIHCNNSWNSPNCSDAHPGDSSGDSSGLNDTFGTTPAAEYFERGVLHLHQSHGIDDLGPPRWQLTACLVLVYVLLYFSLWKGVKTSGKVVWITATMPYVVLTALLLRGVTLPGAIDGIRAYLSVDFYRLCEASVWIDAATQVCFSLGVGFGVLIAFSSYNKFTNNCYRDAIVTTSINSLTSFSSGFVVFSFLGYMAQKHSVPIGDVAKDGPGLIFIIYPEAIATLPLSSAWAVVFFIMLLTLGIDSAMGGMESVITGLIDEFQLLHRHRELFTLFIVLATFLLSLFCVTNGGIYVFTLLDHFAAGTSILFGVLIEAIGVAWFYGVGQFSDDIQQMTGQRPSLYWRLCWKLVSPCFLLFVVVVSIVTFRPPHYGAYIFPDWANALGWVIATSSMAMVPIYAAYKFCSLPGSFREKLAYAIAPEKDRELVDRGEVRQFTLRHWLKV", "conditions": "for W84A total (raw [3H]dopamine uptake counts): Extended Data Fig 7c source data, replicates 1-3", "protocol": "(§2) Replicates containing 10 µM of GBR12909 were used to measure background. […] Uptake was quenched by adding 50 µl of ice-cold inhibition buffer.\n(§3) Specific counts were obtained by subtracting background counts (averaged from technical triplicates) from total counts. […] Data were collected from three independent experiments (n = 3 biological replicates starting from transduction), each performed with three technical replicates."}, "∆-hDAT W84C": {"target": "T2, ∆-hDAT W84C (Homo sapiens, UniProt Q01959, I248Y/W84C)", "T2 sequence (Q01959 57-620 W84C/I248Y limits assumed)": "T1 sequence (Q01959 57-620 W84A/I248Y limits assumed) with A28C", "conditions": "for W84C total (raw [3H]dopamine uptake counts): Extended Data Fig 7c source data, replicates 1-3", "protocol": "as §2, §3"}, "∆-hDAT D385A": {"target": "∆-hDAT D385A (Homo sapiens, UniProt Q01959, D385A/I248Y)", "sequence (Q01959 57-620 I248Y/D385A limits assumed)": "as the sequence (Q01959 57-620 I248Y limits assumed) above, with D329A counted along it", "conditions": "MRS7292 30 µM; [3H]dopamine uptake, Figure 2d raw data", "protocol": "as §2, §3"}, "∆-hDAT D385N": {"target": "∆-hDAT D385N (Homo sapiens, UniProt Q01959, D385N/I248Y)", "sequence (Q01959 57-620 I248Y/D385N limits assumed)": "as the sequence (Q01959 57-620 I248Y limits assumed) above, with D329N counted along it", "conditions": "D385N versus ∆-hDAT", "protocol": "as §2, §3"}, "∆-hDAT V364I": {"target": "∆-hDAT V364I (Homo sapiens, UniProt Q01959, I248Y/V364I)", "sequence (Q01959 57-620 I248Y/V364I limits assumed)": "as the sequence (Q01959 57-620 I248Y limits assumed) above, with V308I counted along it", "conditions": "[3H]dopamine uptake, Figure 2d raw data", "protocol": "as §2, §3"}, "∆-hDAT Y394F": {"target": "∆-hDAT Y394F (Homo sapiens, UniProt Q01959, I248Y/Y394F)", "sequence (Q01959 57-620 I248Y/Y394F limits assumed)": "as the sequence (Q01959 57-620 I248Y limits assumed) above, with Y338F counted along it", "conditions": "for Y394F total (raw [3H]dopamine uptake counts): Extended Data Fig 7c source data, replicates 1-3", "protocol": "as §2, §3"}, "∆-hDAT I390L": {"target": "∆-hDAT I390L (Homo sapiens, UniProt Q01959, I248Y/I390L)", "sequence (Q01959 57-620 I248Y/I390L limits assumed)": "as the sequence (Q01959 57-620 I248Y limits assumed) above, with I334L counted along it", "conditions": "[3H]dopamine uptake", "protocol": "as §2, §3"}, "∆-hDAT V364I/I390L": {"target": "∆-hDAT V364I/I390L (Homo sapiens, UniProt Q01959, I248Y/I390L/V364I)", "sequence (Q01959 57-620 I248Y/V364I/I390L limits assumed)": "as the sequence (Q01959 57-620 I248Y limits assumed) above, with V308I, I334L counted along it", "conditions": "MRS7292 10 µM; [3H]dopamine uptake, Figure 2d raw data", "protocol": "as §2, §3"}},
  "note": "Changes are numbered by the printed parent chain. Values joined by “and” are separate entries in the source; they are usually repeats but may differ in a detail not shown here. Equal entries are not always repeated. “Also recorded” adds a separate entry of the source. Where two headings read alike, the source gives them in different places.",
  "data": [
    {"smiles": "CNc1nc(C#Cc2ccc(Cl)s2)nc2c1ncn2[C@H]1[C@H](O)[C@H](O)[C@]2(C(=O)OC)C[C@H]12", "note": "[MRS7292]", "values": [
      {"measurement": "[3H]DA Uptake - Δ-hDAT, total counts - 10 µM MRS7292", "setting": "∆-hDAT", "result": "20 cpm and 17 cpm and 15 cpm and 19 cpm and 12 cpm and 22 cpm"},
      {"measurement": "[3H]DA Uptake - Full length hDAT, total counts - 10 µM MRS7292", "setting": "full-length hDAT; 10 µM MRS7292, [3H]DA 0.0068 uM", "result": "10 cpm and 11 cpm and 8 cpm and 14 cpm and 9 cpm and 16 cpm"},
      {"measurement": "[3H]DA Uptake - Full length hDAT, total counts - 10 µM MRS7292", "setting": "full-length hDAT; 10 µM MRS7292, [3H]DA 0.061 uM", "result": "13 cpm and 18 cpm and 14 cpm and 10 cpm and 16 cpm and 15 cpm and 19 cpm and 17 cpm"},
      {"measurement": "[3H]DA Uptake - Full length hDAT, total counts - 10 µM MRS7292", "setting": "full-length hDAT; 10 µM MRS7292, [3H]DA 0.185 uM", "result": "25 cpm and 15 cpm and 20 cpm and 27 cpm and 21 cpm and 23 cpm and 22 cpm"},
      {"measurement": "[3H]DA Uptake - Full length hDAT, total counts - 10 µM MRS7292", "setting": "full-length hDAT; 10 µM MRS7292, [3H]DA 1.66 uM", "result": "65 cpm and 83 cpm and 90 cpm and 75 cpm and 88 cpm and 55 cpm and 51 cpm and 66 cpm"},
      {"measurement": "W84A total (raw [3H]dopamine uptake counts)", "setting": "∆-hDAT W84A; MRS7292 1e-6 µM", "result": "4895 and 4792 and 4802 and 4600 and 4953 and 4373 and 5070 and 4982 and 5054"},
      {"measurement": "W84A total (raw [3H]dopamine uptake counts)", "setting": "∆-hDAT W84A; MRS7292 0.041 µM", "result": "4749 and 4230 and 4559 and 4747 and 4675 and 5103 and 5266 and 5201 and 5101"},
      {"measurement": "W84A total (raw [3H]dopamine uptake counts)", "setting": "∆-hDAT W84A; MRS7292 0.123 µM", "result": "4930 and 5121 and 4987 and 4751 and 4624 and 4813 and 5010 and 4838 and 4937"},
      {"measurement": "W84A total (raw [3H]dopamine uptake counts)", "setting": "∆-hDAT W84A; MRS7292 0.37 µM", "result": "4894 and 4668 and 4952 and 4517 and 4587 and 4491 and 5700 and 5202 and 4820"},
      {"measurement": "W84A total (raw [3H]dopamine uptake counts)", "setting": "∆-hDAT W84A; MRS7292 1.11 µM", "result": "4984 and 5198 and 4980 and 4949 and 4430 and 4563 and 5130 and 4679 and 4795"},
      {"measurement": "W84A total (raw [3H]dopamine uptake counts)", "setting": "∆-hDAT W84A; MRS7292 3.33 µM", "result": "4301 and 4523 and 4569 and 4697 and 4581 and 4993 and 4757 and 5251 and 4774"},
      {"measurement": "W84A total (raw [3H]dopamine uptake counts)", "setting": "∆-hDAT W84A; MRS7292 10 µM", "result": "4768 and 4277 and 4629 and 4852 and 4916 and 4947 and 5164 and 4713 and 5124"},
      {"measurement": "W84A total (raw [3H]dopamine uptake counts)", "setting": "∆-hDAT W84A; MRS7292 30 µM", "result": "3395 and 3824 and 4400 and 4392 and 4159 and 3949 and 4924 and 4868 and 4552"},
      {"measurement": "effect of mutation on potency of MRS7292 (inhibition of dopamine uptake)", "setting": "∆-hDAT W84A; W84A versus ∆-hDAT", "result": "severely compromises the potency; also recorded: severe loss of MRS7292 activity"},
      {"measurement": "W84C total (raw [3H]dopamine uptake counts)", "setting": "∆-hDAT W84C; MRS7292 1e-6 µM", "result": "4594 and 4467 and 4710 and 3850 and 4193 and 4029 and 4760 and 5939 and 5408"},
      {"measurement": "W84C total (raw [3H]dopamine uptake counts)", "setting": "∆-hDAT W84C; MRS7292 0.041 µM", "result": "5542 and 4901 and 4879 and 3714 and 3791 and 3749 and 5161 and 5312 and 5150"},
      {"measurement": "W84C total (raw [3H]dopamine uptake counts)", "setting": "∆-hDAT W84C; MRS7292 0.123 µM", "result": "5015 and 4917 and 5068 and 3749 and 3676 and 3489 and 6082 and 6141 and 5806"},
      {"measurement": "W84C total (raw [3H]dopamine uptake counts)", "setting": "∆-hDAT W84C; MRS7292 0.37 µM", "result": "4864 and 5475 and 5004 and 3395 and 4058 and 4217 and 6996 and 6040 and 6103"},
      {"measurement": "W84C total (raw [3H]dopamine uptake counts)", "setting": "∆-hDAT W84C; MRS7292 1.11 µM", "result": "4560 and 4192 and 4804 and 2868 and 3597 and 3884 and 6157 and 6005"},
      {"measurement": "W84C total (raw [3H]dopamine uptake counts)", "setting": "∆-hDAT W84C; MRS7292 3.33 µM", "result": "5290 and 5001 and 5041 and 3941 and 4001 and 3991 and 5807 and 6342 and 6018"},
      {"measurement": "W84C total (raw [3H]dopamine uptake counts)", "setting": "∆-hDAT W84C; MRS7292 10 µM", "result": "5439 and 5725 and 4868 and 3830 and 4200 and 4303 and 5849 and 6416 and 6207"},
      {"measurement": "W84C total (raw [3H]dopamine uptake counts)", "setting": "∆-hDAT W84C; MRS7292 30 µM", "result": "4716 and 4588 and 4467 and 3448 and 3565 and 3579 and 4954 and 3057 and 4610"},
      {"measurement": "effect of mutation on potency of MRS7292 (inhibition of dopamine uptake)", "setting": "∆-hDAT W84C; W84C versus ∆-hDAT", "result": "severely compromises the potency; also recorded: severe loss of MRS7292 activity"},
      {"measurement": "D385A total", "setting": "∆-hDAT D385A", "result": "286 and 316 and 337 and 362 and 408 and 403 and 257 and 320"},
      {"measurement": "effect of mutation on potency of MRS7292 (inhibition of dopamine uptake)", "setting": "∆-hDAT D385N", "result": "retained potency; also recorded: potency of MRS7292 was maintained; also recorded: little effect"},
      {"measurement": "V364I total", "setting": "∆-hDAT V364I; MRS7292 1e-6 µM", "result": "5751 and 5593 and 5760 and 5223 and 5698 and 5483 and 5457 and 5433"},
      {"measurement": "V364I total", "setting": "∆-hDAT V364I; MRS7292 10 µM", "result": "65 and 56 and 61 and 57 and 59 and 73 and 84 and 89"},
      {"measurement": "V364I total", "setting": "∆-hDAT V364I; MRS7292 30 µM", "result": "24 and 25 and 29 and 37 and 23 and 36 and 26"},
      {"measurement": "Y394F total (raw [3H]dopamine uptake counts)", "setting": "∆-hDAT Y394F; MRS7292 1e-6 µM", "result": "1962 and 2141 and 2109 and 2218 and 1876 and 2149 and 2315 and 2380 and 2515"},
      {"measurement": "Y394F total (raw [3H]dopamine uptake counts)", "setting": "∆-hDAT Y394F; MRS7292 0.041 µM", "result": "2021 and 1947 and 2451 and 1672 and 1475 and 1990 and 5167 and 4746"},
      {"measurement": "Y394F total (raw [3H]dopamine uptake counts)", "setting": "∆-hDAT Y394F; MRS7292 0.123 µM", "result": "2135 and 2187 and 2249 and 1538 and 1496 and 1463 and 3048 and 2825 and 2648"},
      {"measurement": "Y394F total (raw [3H]dopamine uptake counts)", "setting": "∆-hDAT Y394F; MRS7292 0.37 µM", "result": "2258 and 2255 and 2215 and 1771 and 1434 and 1467 and 2327 and 2753 and 2672"},
      {"measurement": "Y394F total (raw [3H]dopamine uptake counts)", "setting": "∆-hDAT Y394F; MRS7292 1.11 µM", "result": "1683 and 2000 and 1961 and 1802 and 1518 and 1933 and 2789 and 2557 and 2651"},
      {"measurement": "Y394F total (raw [3H]dopamine uptake counts)", "setting": "∆-hDAT Y394F; MRS7292 3.33 µM", "result": "2058 and 2080 and 2545 and 1969 and 2086 and 2231 and 2762 and 2184 and 1914"},
      {"measurement": "Y394F total (raw [3H]dopamine uptake counts)", "setting": "∆-hDAT Y394F; MRS7292 10 µM", "result": "2191 and 2728 and 2379 and 1871 and 1698 and 1883 and 2721 and 2825 and 2576"},
      {"measurement": "Y394F total (raw [3H]dopamine uptake counts)", "setting": "∆-hDAT Y394F; MRS7292 30 µM", "result": "1926 and 2280 and 2146 and 1689 and 1287 and 1345 and 2421 and 2231 and 2505"},
      {"measurement": "effect of mutation on potency of MRS7292 (inhibition of dopamine uptake)", "setting": "∆-hDAT Y394F; Y394F versus ∆-hDAT", "result": "diminishes the potency; also recorded: severe loss of MRS7292 activity"},
      {"measurement": "change in IC50 of MRS7292 versus ∆-hDAT", "setting": "∆-hDAT I390L; I390L mutant", "result": "modest increase in the IC50 value; also recorded: increased IC50"},
      {"measurement": "I390L total counts", "setting": "∆-hDAT I390L; MRS7292 30 µM, Figure 2d raw data", "result": "109 counts and 108 counts and 83 counts and 89 counts and 68 counts and 75 counts and 87 counts and 88 counts"},
      {"measurement": "I390L-V364I total", "setting": "∆-hDAT V364I/I390L", "result": "85 and 69 and 75 and 62 and 48 and 60 and 76 and 66"}
    ]}
  ]
}
